Activity and EC50 data for five compounds are collected here from ChEMBL document CHEMBL1156425, “Proteasome inhibition induces glutathione synthesis and protects cells from oxidative stress: relevance to Parkinson disease” (J Biol Chem, 2007).

pEC50: −log10 of the molar value. Active and inactive are the calls of the source. The calls are words filed in the database; no cut-off is given here. Where a SMILES comes first, the peptide text is derived from it. The star is where a group is joined. Cbz = O=C(OCc1ccccc1)*; OtBu = CC(C)(C)O*

The test system of assay [1] is PC-12. The assay can be described thus: Inhibition of 6-hydroxydopamine induced cytotoxicity in rat PC12 cells pretreated for 24 hrs assessed as elevation of intracellular glutathione level. The format is functional, cell-based.
Assay [2] relates to PC-12. Briefly: Inhibition of hydrogen peroxide induced cytotoxicity in rat PC12 cells pretreated for 24 hrs assessed as elevation of intracellular glutathione level. The format is functional, cell-based.
The subject of assay [3] is PC-12. The assay can be described thus: Increase in reduced glutathione level in rat PC12 cells after 24 hrs. The format is functional, cell-based.
Assay [4] deals with PC-12. The assay can be described thus: Translocation of Nrf2 protein to nucleus in rat PC12 cells at 1 uM around 6 or 9 hrs. The format is functional, cell-based.
In assay [5] the test system is PC-12. Briefly: Inhibition of proteosome activity in rat PC12 cells at 1 uM after 24 hrs relative to control. The format is cell-based. On the set-up: scale not given: the % may be the effect or the level left.
Assay [6] concerns PC-12. Briefly: Inhibition of 300 uM 6-hydroxydopamine induced ROS production in rat PC12 cells pretreated at 1 uM for 24 hrs by MTT assay. The format is functional, cell-based. In general terms: Tetrazolium dyes change colour on reduction, which living cells bring about.
The subject of assay [7] is PC-12. Briefly: Inhibition of proteosome activity in rat PC12 cells at 0.3 uM after 6 hrs relative to control. The format is cell-based. On the set-up: scale not given: the % may be the effect or the level left.
For assay [8], the system named is PC-12. Briefly: Inhibition of 6-hydroxydopamine-induced cytotoxicity in rat PC12 cells pretreated for 24 hrs by MTT assay. The format is functional, cell-based.
Assay [9] deals with PC-12. The assay can be described thus: Increase in oxidized glutathione level in rat PC12 cells at 1 uM after 12 hrs. The format is functional, cell-based.
The test system of assay [10] is PC-12. The assay can be described thus: Reversal of increase in glutathione level in rat PC12 cells at 1 uM in presence of 3 uM SB-203580 after 24 hrs relative to control. The format is functional.
The subject of assay [11] is PC-12. The assay can be described thus: Increase in GLCLC subunit mRNA expression in rat PC12 cells at 1 uM after 12 hrs. The format is functional, cell-based.
The test system of assay [12] is PC-12. Briefly: Reversal of cytoprotection activity in rat PC12 cells pretreated at 1 uM for 24 hrs in presence of p38 MAPK inhibitor SB-203580. The format is functional, cell-based.
In assay [13] the test system is PC-12. The assay can be described thus: Reversal of increase in glutathione level in rat PC12 cells at 1 uM in presence of 3 uM BIM after 24 hrs relative to control. The format is functional.
Assay [14] has as its system PC-12. The assay can be described thus: Reversal of increase in glutathione level in rat PC12 cells at 1 uM in presence of 30 nM cycloheximide after 24 hrs relative to control. The format is functional.
The subject of assay [15] is PC-12. The assay can be described thus: Inhibition of 6-hydroxydopamine induced cytotoxicity in differentiated rat PC12 cells pretreated for 24 hrs by lactate dehydrogenase release assay. The format is functional, cell-based.
Assay [16] deals with PC-12. Briefly: Inhibition of 6-hydroxydopamine induced cytotoxicity in differentiated rat PC12 cells pretreated for 24 hrs by MTT assay. The format is functional, cell-based.
The test system of assay [17] is PC-12. The assay can be described thus: Inhibition of proteosome activity in rat PC12 cells at 0.3 uM after 24 hrs relative to control. The format is cell-based. On the set-up: scale not given: the % may be the effect or the level left.
The test system of assay [18] is PC-12. The assay can be described thus: Inhibition of proteosome activity in rat PC12 cells at 0.1 uM after 6 hrs relative to control. The format is cell-based. On the set-up: scale not given: the % may be the effect or the level left.
Assay [19] has as its system PC-12. Briefly: Reversal of increase in GLCLC subunit mRNA expression in rat PC12 cells at 1 uM after 12 hrs in presence of p38 MAPK inhibitor SB-203580. The format is functional, cell-based.
For assay [20], the system named is PC-12. Briefly: Inhibition of 150 uM 6-hydroxydopamine induced ROS production in rat PC12 cells pretreated for 24 hrs by MTT assay. The format is functional, cell-based.
Assay [21] has as its system PC-12. The assay can be described thus: Increase in reduced glutathione level in rat PC12 cells at 1 uM after 24 hrs. The format is functional.
In assay [22] the test system is PC-12. The assay can be described thus: Inhibition of 200 uM hydrogen peroxide induced ROS production in rat PC12 cells pretreated for 24 hrs by MTT assay. The format is functional, cell-based.
In assay [23] the test system is PC-12. Briefly: Reversal of increase in glutathione level in rat PC12 cells at 1 uM in presence of 30 uM SB-203580 after 24 hrs relative to control. The format is functional.
The test system of assay [24] is PC-12. The assay can be described thus: Reversal of increase in glutathione level in rat PC12 cells at 1 uM in presence of 10 uM SP600125 after 24 hrs relative to control. The format is functional.
Assay [25] relates to PC-12. The assay can be described thus: Reversal of increase in glutathione level in rat PC12 cells at 1 uM in presence of 10 nM cycloheximide after 24 hrs relative to control. The format is functional.
For assay [26], the system named is PC-12. Briefly: Reversal of increase in glutathione level in rat PC12 cells at 1 uM in presence of 100 nM cycloheximide after 24 hrs relative to control. The format is functional.
For assay [27], the system named is PC-12. Briefly: Reversal of increase in glutathione level in rat PC12 cells at 1 uM in presence of 10 uM SB-203580 after 24 hrs relative to control. The format is functional.
The subject of assay [28] is PC-12. Briefly: Inhibition of proteosome activity in rat PC12 cells at 1 uM after 6 hrs relative to control. The format is cell-based. On the set-up: scale not given: the % may be the effect or the level left.
Assay [29] concerns PC-12. The assay can be described thus: Increase in oxidized glutathione level in rat PC12 cells at 1 uM after 24 hrs. The format is functional, cell-based.
Assay [30] concerns PC-12. Briefly: Reversal of increase in glutathione level in rat PC12 cells at 1 uM in presence of 30 uM PD-98059 after 24 hrs relative to control. The format is functional.
For assay [31], the system named is PC-12. The assay can be described thus: Inhibition of hydrogen peroxide induced cytotoxicity in rat PC12 cells pretreated for 24 hrs by MTT assay. The format is functional, cell-based.
Assay [32] relates to PC-12. Briefly: Inhibition of proteosome activity in rat PC12 cells at 0.1 uM after 24 hrs relative to control. The format is cell-based. On the set-up: scale not given: the % may be the effect or the level left.
The test system of assay [33] is PC-12. The assay can be described thus: Inhibition of 300 uM hydrogen peroxide induced ROS production in rat PC12 cells pretreated at 1 uM for 24 hrs by MTT assay. The format is functional, cell-based.
Assay [34] deals with PC-12. The assay can be described thus: Reversal of increase in glutathione level in rat PC12 cells at 1 uM in presence of 10 uM wortmannin after 24 hrs relative to control. The format is functional.
Assay [35] concerns PC-12. Briefly: Increase in glutathione level in differentiated rat PC12 cells after 24 hrs. The format is functional, cell-based.
In assay [36] the test system is PC-12. Briefly: Cytotoxicity against rat PC12 cells after 24 hrs by MTT assay. The format is functional, cell-based. The following applies: PC-12, 24 h.

As for `CC(=O)N[C@@H](CS)C(=O)O`, the outcome in the assay with PC-12 [1] and with PC-12 [2] was Active.

Turning to `CC[C@H](C)[C@H](NC(=O)OCc1ccccc1)C(=O)N[C@@H](CCC(=O)OC(C)(C)C)C(=O)N[C@@H](C)C(=O)N[C@H](C=O)CC(C)C` (Cbz-IE(OtBu)AL-aldehyde), the outcome in the assay on PC-12 [3] was Active.

For the compound `CC(C)C[C@@H](C=O)NC(=O)[C@H](CC(C)C)NC(=O)[C@H](CC(C)C)NC(=O)OCc1ccccc1` (Cbz-Leu-Leu-Leu-aldehyde), in the assay with PC-12 [3], the result was Active.

On to `CC(=O)N[C@@H](CSC(=O)[C@]1([C@@H](O)C(C)C)NC(=O)[C@H](C)[C@@H]1O)C(=O)O` [LACTACYSTIN], for which the result with PC-12 [4], with PC-12 [6], with PC-12 [11], in the assay with PC-12 [12], in the assay with PC-12 [15] and in the assay on PC-12 [19] was Active. The result with PC-12 [20], in the assay on PC-12 [22], in the assay on PC-12 [29] and in the assay with PC-12 [33] was Active. The Activity in the assay with PC-12 [5] is 77.2%; in the assay with PC-12 [7], 70.3%; with PC-12 [8], “Dose-dependent effect”; with PC-12 [10], 220 nmol/mg; with PC-12 [13] it was 354 nmol/mg; with PC-12 [14], 150 nmol/mg. Besides, the Activity result is “Dose-dependent effect” in the assay on PC-12 [16]; 84.9% with PC-12 [17]; 98% with PC-12 [18]; 320.5 nmol/mg in the assay with PC-12 [21]; 133.5 nmol/mg in the assay on PC-12 [23]; 341.4 nmol/mg in the assay with PC-12 [24]. In addition, the Activity in the assay with PC-12 [25] was 216.8 nmol/mg; with PC-12 [26] it was 98.3 nmol/mg; in the assay on PC-12 [27], 190.5 nmol/mg; with PC-12 [28], 49.7%; with PC-12 [30], 234 nmol/mg; with PC-12 [31], “Dose-dependent effect”. In addition, the Activity in the assay with PC-12 [32] is 94.3%; with PC-12 [34], 248.7 nmol/mg; in the assay with PC-12 [35] it was “Dose-dependent effect”; with PC-12 [3], “Dose-dependent effect”. The outcome with PC-12 [9] was inactive.

The term pEC50 denotes −log10 of the EC50, conventionally taken in molar units. Compound `NCCc1cc(O)c(O)cc1O` [OXIDOPAMINE] gave a pEC50 in the assay on PC-12 [36] of 3.98.
